From publication PMC10042146, “SARS-CoV-2 M^pro Protease Variants of Concern Display Altered Viral Substrate and Cell Host Target Galectin-8 Processing but Retain Sensitivity toward Antivirals” (ACS Central Science, 2023)

Biological target: T1, SARS-CoV-2 M^pro (wild type) (Severe acute respiratory syndrome coronavirus 2, UniProt P0DTD1)
T1 construct: gene rep; mature nsp5 cut from replicase polyprotein 1ab (also pp1a); homodimer; purification details only in supplement
Format: biochemical

AVI-8053
IC50: 19 nM
